Reference: patent US6787315B2, “Methods for identifying ligand binding sites in a biomolecule” (priority 2001, dated 2004)

Experiments:
Design in all cases: species or system E. coli
[1] = system: modified 16S RNA (5IU1495; 5-iodouridine at position U1495, PEG-6 chain at 5′-hydroxyl); test: ESI-FT-ICR MS ligand binding to 27-mer 16S RNA modified at U1495; conditions: Example 3: ribostamycin 2.5 μM
Procedure: (§1) The following examples illustrate preferred embodiments of the present invention using mass spectrometry. Experiments were performed using a 7.0 Tesla Fourier transform ion cyclotron resonance (FT-ICR) mass spectrometer with an electrospray ionization source operating in the negative mode. A −3000 V difference was employed between the spray tip and the inlet capillary to generate the electrospray. Samples were introduced at a flow rate of 1.5 uL/min using a Harvard syringe pump and a 50 uL glass syringe. The desolvation of the electrospray droplets was aided by a flow of countercurrent gas at 1 L/min. Ions were accumulated for 1.0 sec in an intermediate hexapole ion storage region at 1.0×10^−5 mbar. Following transfer to the FT-ICR analysis cell, the image current was measured over a mass range of 500-4000 m/z. Typically, a total of 32 transients containing 512 kbytes were summed prior to Fourier transformation. […]
An aqueous solution containing 50 mM ammonium acetate buffer (pH 7.0), 33% isopropyl alcohol, ribostamycin (2.5 μM), 16S RNA (2.5 μM) and a modified 16S RNA (2.5 μM) was prepared. […] The peaks were integrated and ion abundances determined. Fractions of 16S+ribost and 5IU1495+ribost complexes were determined to be 67.6% and 29.9±1% for the free 16S RNA and 5IU1495 RNA, respectively.

[2] = system: modified 16S RNA (5′-PS-G1491; 3′-phosphorothioate at G1491, C12O6 PEG mass tag); test: ESI-FT-ICR MS ligand binding to 27-mer 16S RNA modified at G1491
Procedure: (§2) The following examples illustrate preferred embodiments of the present invention using mass spectrometry. Experiments were performed using a 7.0 Tesla Fourier transform ion cyclotron resonance (FT-ICR) mass spectrometer with an electrospray ionization source operating in the negative mode. A −3000 V difference was employed between the spray tip and the inlet capillary to generate the electrospray. Samples were introduced at a flow rate of 1.5 uL/min using a Harvard syringe pump and a 50 uL glass syringe. The desolvation of the electrospray droplets was aided by a flow of countercurrent gas at 1 L/min. Ions were accumulated for 1.0 sec in an intermediate hexapole ion storage region at 1.0×10^−5 mbar. Following transfer to the FT-ICR analysis cell, the image current was measured over a mass range of 500-4000 m/z. Typically, a total of 32 transients containing 512 kbytes were summed prior to Fourier transformation. The m/z values were calibrated on the signal from the [M-5H^+]^5− charge state of the free RNA at 1726.509.
An aqueous solution containing 100 mM ammonium acetate buffer (pH 7.0), 33% isopropyl alcohol, gentamicin (1 μM), 16S RNA (5 μM) and a modified 16S RNA (5.5 μM) was prepared. Modified 27-mer 16S RNA contained a 3′-phosphorothioate residue at position G1491 at the position of a G-C base pair (E. coli numbering system) and a C12O6 PEG mass tag off the 5′-hydroxyl group. Mass spectra were obtained using the standard protocol described above. The resulting mass spectra contained identifiable peaks corresponding to free 16S RNA (m/z 1726.5), free modified 16S RNA(5′-PS-G1491; m/z 1779.3), 16S complexed with the three forms of gentamicin present in the sample (16S+genta; m/z 1816-1825), and 16S(5′-PS-G1491) complexed with the three forms of gentamicin (5′-PS-G1491+genta; m/z 1869-1875). The peaks from the complexes formed from the lowest mass form of gentamicin were integrated and ion abundances determined. Fractions of 16S+genta and 5′-PS-G1491+genta complexes were determined to be 0.127 and 0.140±0.01% for the free 16S RNA and 5′-PS-G1491 RNA, respectively.
An aqueous solution containing 100 mM ammonium acetate buffer (pH 7.0), 33% isopropyl alcohol, ribostamycin (1 μM), 16S RNA (5 μM) and a modified 16S RNA (5.5 uM) was prepared. Modified 27 mer 16S RNA contained a 3′-phosphorothioate residue at position G1491 at the position of a G-C base pair (E. coli numbering system) and a C12O6 PEG mass tag off the 5′-hydroxyl group. […] The peaks from the complexes formed between ribostamycin and the RNA were integrated and ion abundances determined. Fractions of 16S+ribost and 5′-PS-G1491+ribost complexes were determined to be 0.105 and 0.100±0.005% for the free 16S RNA and 5′-PS-G1491 RNA, respectively.

[3] = system: modified 16S RNA (5IUtetra; 5-iodouridine at position 13 in the UUCG tetraloop); test: ESI-FT-ICR MS ligand binding to 27-mer 16S RNA modified at the tetraloop
Procedure: as §1
(§3) An aqueous solution containing 100 mM ammonium acetate buffer (pH 7.0), 33% isopropyl alcohol, gentamicin (2 μM, present in three forms), 16S RNA (2.5 μM) and a modified 16S RNA (2.5 μM) was prepared. […] The peaks were integrated and ion abundances determined. Fractions of 16S+genta and 5IUtetra+genta complexes were determined to be 70.4% and 68.2±1% for the free 16S RNA and 5IUtetraRNA, respectively.

[4] = system: modified 16S RNA (5IU1406; 5-iodouridine at position U1406); test: ESI-FT-ICR MS ligand binding to 27-mer 16S RNA modified at U1406; conditions: Example 2: gentamicin 2 μM
Procedure: as §2
as §3, with “μM),” for “μM, present in three forms),”, “5IU1406+genta” for “5IUtetra+genta”, “66.8%” for “70.4%”, “28.1±1%” for “68.2±1%”, “5IU1406 RNA,” for “5IUtetraRNA,”

Molecule | Amount of 5IU1495+ribost as % of the amount of 16S+ribost [1] | Fraction of 5IU1495+ribost complex ([1]; 16S RNA 2.5 μM with 5IU1495 RNA 2.5 μM, 50 mM ammonium acetate pH 7.0, 33% isopropyl alcohol) | Amount of 5′-PS-G1491+ribost as % of the amount of 16S+ribost ([2]; Example 5: ribostamycin 1 μM) | Fraction of 5′-PS-G1491+ribost complex ([2]; Example 5: ribostamycin 1 μM, 16S RNA 5 μM with 5′-PS-G1491 RNA 5.5 uM, 100 mM ammonium acetate pH 7.0, 33% isopropyl alcohol) | Effect of 5-iodouridine residue in the tetraloop on the abundance of the gentamicin-RNA complex ([3]; Example 1: 5IUtetra versus 16S RNA) | Fraction of 5IUtetra+genta complex ([3]; Example 1: gentamicin 2 μM (three forms), 16S RNA 2.5 μM with 5IUtetra RNA 2.5 μM, 100 mM ammonium acetate pH 7.0, 33% isopropyl alcohol) | Amount of 5IU1406+genta as % of the amount of 16S+genta [4] | Fraction of 5IU1406+genta complex ([4]; 16S RNA 2.5 μM with 5IU1406 RNA 2.5 μM, 100 mM ammonium acetate pH 7.0, 33% isopropyl alcohol) | Amount of 5′-PS-G1491+genta as % of the amount of 16S+genta ([2]; Example 4: gentamicin 1 μM) | Fraction of 5′-PS-G1491+genta complex ([2]; Example 4: gentamicin 1 μM (lowest mass form integrated), 16S RNA 5 μM with 5′-PS-G1491 RNA 5.5 μM, 100 mM ammonium acetate pH 7.0, 33% isopropyl alcohol)
NC[C@H]1O[C@H](O[C@H]2[C@H](O[C@@H]3O[C@H](CO)[C@@H](O)[C@H]3O)[C@@H](O)[C@H](N)C[C@@H]2N)[C@H](N)[C@@H](O)[C@@H]1O [ribostamycin] | 44% | 29.9±1% | 94% | 0.100±0.005% | – | – | – | – | – | –
gentamicin | – | – | – | – | no effect | 68.2±1% | 42% | 28.1±1% | 110% | 0.140±0.01 fraction (unitless)
